# Data as given in US10131652B2, “Pyrimidinyloxy benzene derivatives as herbicides” (E. I. DU PONT DE NEMOURS AND COMPANY, priority 2014, dated 2018).
# Assays:
# Format in all cases: in vivo
# [1] = system: Italian ryegrass (Lolium multiflorum); experiment: Test B pre-/postemergence plant response
# Outline: (§1)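 Evaluation is visual, about 10 days after application, rating injury from 0 (none) to 100 (complete control) relative to untreated controls. Application was a preemergence soil spray on seeded pots or a postemergence spray on one- to two-leaf plants.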
# kochia (Kochia scoparia) = experiment: Test B pre-/postemergence plant response
# Outline: as §1
# [2] = system: ragweed (common ragweed, Ambrosia elatior); experiment: Test B pre-/postemergence plant response
# Outline: as §1
# [3] = system: Italian ryegrass (Lolium multiflorum); experiment: Test D pre-/postemergence plant response
# Outline: (§2)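 Ratings were visual, 0 = no effect to 100 = complete control, taken against untreated controls after 13 to 15 days in a greenhouse. Chemicals, formulated in non-phytotoxic surfactant-containing solvent, went onto soil (loam/sand) at planting for preemergence, or onto 1- to 4-leaf plants (2–18 cm) for postemergence.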
# [4] = system: lambsquarters (Chenopodium album); experiment: Test D pre-/postemergence plant response
# Outline: as §2
# [5] = system: oilseed rape (Brassica napus); experiment: Test D pre-/postemergence plant response
# Outline: as §2
# [6] = system: galium (catchweed bedstraw, Galium aparine); experiment: Test D pre-/postemergence plant response
# Outline: as §2
# [7] = system: winter wheat (Triticum aestivum); experiment: Test D pre-/postemergence plant response
# Outline: as §2
# corn (Zea mays) = experiment: Test D pre-/postemergence plant response
# Outline: as §2
# [8] = system: velvetleaf (Abutilon theophrasti); experiment: Test D pre-/postemergence plant response
# Outline: as §2
# [9] = system: ducksalad (Heteranthera limosa); experiment: Test C flooded paddy test plant response; conditions: Flood, 250 g ai/ha; scale of 0 to 100 where 0 is no effect and 100 is complete control; 13 to 15 days
# Outline: (§3)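 Scored visually on a 0–100 scale (100 = complete control) against untreated plants 13 to 15 days after treatment in the greenhouse. Compounds went into paddy water of pots flooded to 3 cm, holding 2-leaf-stage plants.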
# [10] = system: small-flower umbrella sedge (Cyperus difformis); experiment: Test C flooded paddy test plant response; conditions: Flood, 250 g ai/ha; scale of 0 to 100 where 0 is no effect and 100 is complete control; 13 to 15 days
# Outline: as §3
# rice (Oryza sativa) = experiment: Test C flooded paddy test plant response; conditions: Flood, 250 g ai/ha; scale of 0 to 100 where 0 is no effect and 100 is complete control; 13 to 15 days
# Outline: as §3
# [11] = system: barnyardgrass (Echinochloa crus-galli); experiment: Test C flooded paddy test plant response; conditions: Flood, 250 g ai/ha; scale of 0 to 100 where 0 is no effect and 100 is complete control; 13 to 15 days
# Outline: as §3
# [12] = 125 g ai/ha, postemergence, 0 to 100 scale, 0 no effect, 100 complete control
# [13] = Postemergence, 500 g ai/ha, 0 to 100 scale (0 no effect, 100 complete control)
# [14] = Preemergence, 125 g ai/ha, 0 to 100 scale where 0 is no effect and 100 is complete control
# [15] = Preemergence, 500 g ai/ha, 0 to 100 scale where 0 is no effect and 100 is complete control
# [16] = Postemergence, 16 g ai/ha, scale 0 to 100 (0 no effect, 100 complete control)
# [17] = Postemergence, 31 g ai/ha, scale 0 to 100 (0 no effect, 100 complete control)
# [18] = Postemergence, 62 g ai/ha, scale 0 to 100, 0 no effect, 100 complete control
# [19] = Postemergence, 125 g ai/ha, scale 0 to 100, 0 no effect, 100 complete control
# [20] = Preemergence, 16 g ai/ha, scale 0 to 100 (0 no effect, 100 complete control)
# [21] = Preemergence, 31 g ai/ha, scale 0 to 100 (0 no effect, 100 complete control)
# [22] = Preemergence, 62 g ai/ha, scale 0 to 100 (0 no effect, 100 complete control)
structure (smiles),measurement,setting,value
FC(F)(F)c1cc(-c2ccccc2Oc2ncc(Cl)cn2)ncn1 [Compound 54],"Plant response rating, Ryegrass, Italian",[1]; [12],30
same,"Plant response rating, Ryegrass, Italian",[1]; [13],60
same,"Plant response rating, Ryegrass, Italian",[1]; [14],30
same,"Plant response rating, Ryegrass, Italian",[1]; [15],60
same,"Plant response rating, Kochia",kochia (Kochia scoparia); [12],100
same,"Plant response rating, Kochia",kochia (Kochia scoparia); [13],100
same,"Plant response rating, Kochia",kochia (Kochia scoparia); [14],80
same,"Plant response rating, Kochia",kochia (Kochia scoparia); [15],100
same,"Plant response rating, Ragweed",[2]; [12],50
same,"Plant response rating, Ragweed",[2]; [13],60
same,"Plant response rating, Ragweed",[2]; [14],60
same,"Plant response rating, Ragweed",[2]; [15],70
same,"Ryegrass, Italian plant response rating",[3]; [16],0
same,"Ryegrass, Italian plant response rating",[3]; [17],0
same,"Plant response rating, Ryegrass, Italian",[3]; [18],0
same,"Plant response rating, Ryegrass, Italian",[3]; [19],0
same,"Plant response rating (scale 0 to 100), Ryegrass, Italian","[3]; Preemergence, 125 g ai/ha",30
same,"Plant response rating, Ryegrass, Italian",[3]; [20],0
same,"Plant response rating, Ryegrass, Italian",[3]; [21],5
same,"Plant response rating, Ryegrass, Italian",[3]; [22],5
same,Lambsquarters plant response rating,[4]; [16],0
same,Lambsquarters plant response rating,[4]; [17],5
same,"Plant response rating, Lambsquarters",[4]; [18],5
same,"Plant response rating, Lambsquarters",[4]; [19],70
same,"Plant response rating (scale 0 to 100), Lambsquarters","[4]; Preemergence, 125 g ai/ha",85
same,"Plant response rating, Lambsquarters",[4]; [20],5
same,"Plant response rating, Lambsquarters",[4]; [21],60
same,"Plant response rating, Lambsquarters",[4]; [22],85
same,Oilseed Rape plant response rating,[5]; [16],5
same,Oilseed Rape plant response rating,[5]; [17],20
same,"Plant response rating, Oilseed Rape",[5]; [18],50
same,"Plant response rating, Oilseed Rape",[5]; [19],60
same,"Plant response rating (scale 0 to 100), Oilseed Rape","[5]; Preemergence, 125 g ai/ha",100
same,"Plant response rating, Oilseed Rape",[5]; [20],60
same,"Plant response rating, Oilseed Rape",[5]; [21],85
same,"Plant response rating, Oilseed Rape",[5]; [22],100
same,Galium plant response rating,[6]; [16],50
same,Galium plant response rating,[6]; [17],55
same,"Plant response rating, Galium",[6]; [18],55
same,"Plant response rating, Galium",[6]; [19],75
same,"Plant response rating (scale 0 to 100), Galium","[6]; Preemergence, 125 g ai/ha",85
same,"Plant response rating, Galium",[6]; [20],50
same,"Plant response rating, Galium",[6]; [21],85
same,"Plant response rating, Galium",[6]; [22],60
same,Wheat plant response rating,[7]; [16],0
same,Wheat plant response rating,[7]; [17],0
same,"Plant response rating, Wheat",[7]; [18],0
same,"Plant response rating, Wheat",[7]; [19],5
same,"Plant response rating (scale 0 to 100), Wheat","[7]; Preemergence, 125 g ai/ha",0
same,"Plant response rating, Wheat",[7]; [20],0
same,"Plant response rating, Wheat",[7]; [21],0
same,"Plant response rating, Wheat",[7]; [22],0
same,Corn plant response rating,corn (Zea mays); [16],0
same,Corn plant response rating,corn (Zea mays); [17],0
same,"Plant response rating, Corn",corn (Zea mays); [18],5
same,"Plant response rating, Corn",corn (Zea mays); [19],5
same,"Plant response rating (scale 0 to 100), Corn","corn (Zea mays); Preemergence, 125 g ai/ha",0
same,"Plant response rating, Corn",corn (Zea mays); [20],0
same,"Plant response rating, Corn",corn (Zea mays); [21],0
same,"Plant response rating, Corn",corn (Zea mays); [22],0
same,Velvetleaf plant response rating,[8]; [16],0
same,Velvetleaf plant response rating,[8]; [17],5
same,"Plant response rating, Velvetleaf",[8]; [18],40
same,"Plant response rating, Velvetleaf",[8]; [19],40
same,"Plant response rating (scale 0 to 100), Velvetleaf","[8]; Preemergence, 125 g ai/ha",100
same,"Plant response rating, Velvetleaf",[8]; [20],15
same,"Plant response rating, Velvetleaf",[8]; [21],70
same,"Plant response rating, Velvetleaf",[8]; [22],85
same,Ducksalad plant response rating,[9],60
same,"Sedge, Umbrella plant response rating",[10],0
same,Rice plant response rating,rice (Oryza sativa),0
same,Barnyardgrass plant response rating,[11],0
